According to US11638718B2, “Treatment of alphavirus-induced inflammation” (priority 2016, dated 2023):
Marks after values point to notes of the source that are not given here.

Legend:
Ross River virus (RRV) [1] = assay: Long-term oral PPS treatment of RRV-infected mice: clinical signs, joint gene expression
Ross River virus (RRV) [2] = assay: H&E histology of quadriceps muscle and joint inflammation, RRV-infected mice
Ross River virus (RRV) [3] = assay: RRV-induced disease in mice: clinical score and weight; type: in vivo, C57BL/6 mice; conditions: RRV-infected mice, PPS 3 mg/kg i.p. daily vs vehicle
[4] = tested on: chikungunya virus (CHIKV); assay: CHIKV viral load: plaque assay on Vero cells and E2 qPCR; type: in vivo, C57BL/6 mice; conditions: CHIKV-infected, days 1, 3 and 7 p.i.
[5] = humans, periods greater than 12 months (ref 53); cited from earlier work
Ross River virus (RRV) [6] = assay: Masson's trichrome and Safranin O/Fast Green histology of muscle, cartilage and epiphyseal plate, RRV-infected mice; conditions: day 10 p.i.
Ross River virus (RRV) [7] = assay: Detection of leukocyte infiltrates in quadriceps by flow cytometry, RRV-infected mice
Ross River virus (RRV) [8] = assay: RRV viral load: plaque assay on Vero cells and nsP3 qPCR; type: in vivo, C57BL/6 mice
Ross River virus (RRV) [9] = assay: Serum soluble factors by multiplex bead array, RRV-infected mice
[10] = tested on: chikungunya virus (CHIKV); assay: Serum soluble factors by multiplex, CHIKV-infected mice
[11] = tested on: chikungunya virus (CHIKV); assay: CHIKV-induced footpad swelling and joint histology in mice; type: in vivo, C57BL/6 mice
[12] = tested on: cartilage matrix genes in joint tissues of RRV-infected mice; assay: Real-time PCR of cartilage matrix genes in joint tissues, acute RRV infection
alphavirus = conditions: earlier studies by the group (refs 30, 55-57); cited from earlier work
[13] = RRV + PPS, long-term oral treatment, joint tissue
[14] = long-term oral PPS, RRV-infected
[15] = peak disease (day 10 p.i.), not at the early stages

In the case of pentosan polysulfate [PPS], the “Fold Change ADAMTS-4” value (Ross River virus (RRV) [1]; [13]) is reported as 0.1689**, the “Fold Change ADAMTS-5” value (Ross River virus (RRV) [1]; [13]) is reported as 0.8305 and the “Fold Change Aggrecan” value (Ross River virus (RRV) [1]; [13]) is reported as 0.6105***. The “Fold Change BMP-1” value (Ross River virus (RRV) [1]; [13]) was 1.4697, the “Fold Change Collagen I” value (Ross River virus (RRV) [1]; [13]) was 0.4014 and the “Fold Change Collagen II” value (Ross River virus (RRV) [1]; [13]) was 0.1719. The “Fold Change MMP-3” value (Ross River virus (RRV) [1]; [13]) was 2.5028, the “Fold Change MMP-9” value (Ross River virus (RRV) [1]; [13]) was 0.8604 and the “Fold Change TGF-β1” value (Ross River virus (RRV) [1]; [13]) was 0.4010. For the same substance, the “Fold Change TIMP-3” value (Ross River virus (RRV) [1]; [13]) was 0.6328, the “ADAMTS-4 expression” value (Ross River virus (RRV) [1]; [14]) was “reduced” and the “expression of aggrecan” value (Ross River virus (RRV) [1]; [14]) was “back to base-line levels”. The joint damage (Ross River virus (RRV) [1]; [14]) was “less joint damage”, the adverse clinical signs (Ross River virus (RRV) [1]; oral PPS in drinking water 100 mg/L (25 mg/kg/day), 3-month duration) was “no adverse clinical signs” and the “infiltrating cells in muscle and joint tissues (H&E)” value (Ross River virus (RRV) [2]; RRV-infected, PPS 3 mg/kg i.p. daily, day 7 and 10 p.i.) was “markedly reduced numbers of infiltrating cells”. For the same substance, the “inflammation in quadriceps muscle or ankle joint” value (Ross River virus (RRV) [2]; mock-infected PPS-treated mice) was “No inflammation was observed”, the “decrease in clinical disease score” value (Ross River virus (RRV) [3]) was 65% and the disease-associated weight loss (Ross River virus (RRV) [3]) was “protection from disease-associated weight loss”. For the same substance, the “kinetics of virus infection (plaque assay)” value [4] was “did not affect the kinetics of virus infection”, the “tolerability of long-term clinical use” value [5] was “extremely well tolerated” and the chondrocyte morphology (Ross River virus (RRV) [6]) was “maintaining chondrocyte morphology”. For the same substance, the epiphyseal plate thickness (Ross River virus (RRV) [6]) was “prevented RRV-induced thinning of the epiphyseal plate”, the “loss of articular cartilage” value (Ross River virus (RRV) [6]) was “preventing the loss of articular cartilage” and the “proteoglycan matrix of articular cartilage (Safranin O/Fast Green, knee joint)” value (Ross River virus (RRV) [6]) was “protected the proteoglycan matrix of the articular cartilage”. For the same substance, the “skeletal muscle morphology (tibialis anterior, Masson's trichrome)” value (Ross River virus (RRV) [6]) was “protected the morphology of striations within the skeletal muscle”, the “NK cell population in quadriceps” value (Ross River virus (RRV) [7]; day 7 p.i.) was “reductions” and the “T cell population in quadriceps” value (Ross River virus (RRV) [7]; day 7 p.i.) was “reductions”. The “monocyte population in quadriceps” value (Ross River virus (RRV) [7]; day 7 p.i.) was “reductions”, the “numbers of CD45+ infiltrating leukocytes in quadriceps” value (Ross River virus (RRV) [7]; day 7 p.i.) was “uniformly reduced” and the “NK cell population in quadriceps” value (Ross River virus (RRV) [7]; day 10 p.i.) was “decrease”. The “T cell population in quadriceps” value (Ross River virus (RRV) [7]; day 10 p.i.) was “decrease”, the “percentage of NK cells in quadriceps (NK cell to total cell ratio)” value (Ross River virus (RRV) [7]; day 10 p.i., data not shown) was “reduction in the overall percentage of NK cells” and the “viral titres in serum” value (Ross River virus (RRV) [8]; PPS-treated vs mock-treated, all days tested, plaque assay) was “comparable”. The “RRV titres in quadriceps muscles” value (Ross River virus (RRV) [8]; PPS-treated vs mock-treated, plaque assay) was “comparable”, the “RRV titres in ankle tissues” value (Ross River virus (RRV) [8]; day 3 p.i., plaque assay) was “slight reduction” and the “RRV titres in ankle tissues” value (Ross River virus (RRV) [8]; day 7 p.i., plaque assay) was “comparable”. The “RRV RNA in joint tissue (qPCR), difference to mock-treated” value (Ross River virus (RRV) [8]; day 10 p.i.) was “not statistically significant”, the “RRV titres in ankle tissues” value (Ross River virus (RRV) [8]; day 10 p.i., plaque assay, vs mock-treated) was “elevated” and the “serum IL-10” value (Ross River virus (RRV) [9]; day 1 p.i.) was “significantly elevated”. The serum chemo-attractants factors (Ross River virus (RRV) [9]; day 1 p.i.) was “increased levels”, the “serum IL-10” value (Ross River virus (RRV) [9]; day 3 p.i.) was “significantly elevated” and the “serum CCL-2” value (Ross River virus (RRV) [9]; peak disease (day 10 p.i.)) was “significantly reduced”. The “serum IL-1α” value (Ross River virus (RRV) [9]; peak disease (day 10 p.i.)) was “significantly reduced”, the “serum IL-2” value (Ross River virus (RRV) [9]; peak disease (day 10 p.i.)) was “significantly reduced” and the “serum IL-6” value (Ross River virus (RRV) [9]; peak disease (day 10 p.i.)) was “significantly reduced”. For the same substance, the “serum MIP-1α” value (Ross River virus (RRV) [9]; peak disease (day 10 p.i.)) was “significantly reduced”, the “serum IL-10” value ([10]; early) was “early surge” and the “serum CCL-2” value ([10]; peak disease (day 3 p.i.)) was “reduced the levels”. The “serum G-CSF” value ([10]; peak disease (day 3 p.i.)) was “reduced the levels”, the “serum IL-6” value ([10]; peak disease (day 3 p.i.)) was “reduced the levels” and the “serum IL-9” value ([10]; peak disease (day 3 p.i.)) was “reduced the levels”. The “joint (footpad) swelling” value ([11]; CHIKV-infected mice, PPS 3 mg/kg i.p. daily) was “decreased the level of joint swelling”, the “inflammatory cells infiltrating into the joint (H&E)” value ([11]; CHIKV-infected, peak swelling 3 days p.i.) was “reduction in inflammatory cells infiltrating into the joint” and the BMP-1 expression ([12]; RRV-infected, PPS 3 mg/kg i.p.) was “unaffected”. For the same substance, the TGF-β1 expression ([12]; RRV-infected, PPS 3 mg/kg i.p.) was “unaffected”, the “aggrecan expression increase caused by RRV” value ([12]; RRV-infected, PPS 3 mg/kg i.p.) was “largely reduced” and the “collagen I expression increase caused by RRV” value ([12]; RRV-infected, PPS 3 mg/kg i.p.) was “largely reduced”. For the same substance, the “collagen II expression increase caused by RRV” value ([12]; RRV-infected, PPS 3 mg/kg i.p.) was “largely reduced”, the metalloproteinases expression ([12]; RRV-infected, PPS 3 mg/kg i.p.) was “unaffected” and the “early expression of aggrecan” value ([12]; early time points p.i.) was “significantly reduced”. For the same substance, the “early expression of collagen II” value ([12]; early time points p.i.) was “significantly reduced”, the “ADAMTS-5 expression in joint tissue” value [12, 15] was “significantly reduced” and the “TIMP-3 expression in joint tissue” value [12, 15] was “significantly reduced”.

For Enbrel, the “effect on alphavirus disease” value (alphavirus) is listed as “suppress the antiviral response and enhance viral replication thereby worsen disease”.
